# Results reported in ChEMBL document CHEMBL4396865, “Current advances of triazole alcohols derived from fluconazole: Design, in vitro and in silico studies” (2019).
# Legend:
# Assay type in all cases: functional
# Candida parapsilosis [1] = test: Antifungal activity against Candida parapsilosis after 48 hrs by NCCLS protocol based method; details: Lodderomyces parapsilosis
# Candida albicans [2] = test: Antifungal activity against Candida albicans after 48 hrs by NCCLS protocol based method
# Candida albicans [3] = test: Antifungal activity against Candida albicans; details: Candida albicans; for MIC: read-out: MIC
# Candida parapsilosis [4] = test: Antifungal activity against Candida parapsilosis; details: Lodderomyces parapsilosis
# Candida albicans [5] = test: Potency index, ratio of fluconazole MIC to test compound MIC for Candida albicans
# Aspergillus fumigatus [6] = test: Antifungal activity against Aspergillus fumigatus; details: Aspergillus fumigatus
# Candida tropicalis [7] = test: Antifungal activity against Candida tropicalis; details: Candida tropicalis
# Cryptococcus neoformans [8] = test: Antifungal activity against Cryptococcus neoformans; details: Cryptococcus neoformans
# Candida albicans [9] = test: Antifungal activity against Candida albicans ATCC 76615 after 24 hrs by microbroth dilution method; details: ATCC 76615, 24 h
# Trichophyton rubrum [10] = test: Antifungal activity against Trichophyton rubrum; details: Trichophyton rubrum
# Kluyveromyces marxianus = test: Antifungal activity against Candida kefyr; details: Kluyveromyces marxianus
# Aspergillus fumigatus [11] = test: Antifungal activity against Aspergillus fumigatus after 24 hrs
# Pichia kudriavzevii [12] = test: Antifungal activity against Candida krusei after 24 hrs
# Trichophyton rubrum [13] = test: Antifungal activity against Trichophyton rubrum after 24 hrs
# Candida albicans [14] = test: Antifungal activity against Candida albicans Y0109 after 24 hrs; details: Y0109, 24 h
# Candida parapsilosis [15] = test: Antifungal activity against Candida parapsilosis after 24 hrs; details: Lodderomyces parapsilosis
# Cryptococcus neoformans [16] = test: Antifungal activity against Cryptococcus neoformans after 24 hrs
# Nannizzia gypsea [17] = test: Antifungal activity against Microsporum gypseum after 24 hrs
# Candida albicans [18] = test: Antifungal activity against Candida albicans ATCC SC5314 after 24 hrs; details: ATCC SC5314, 24 h
# Pichia norvegensis = test: Antifungal activity against Candida mycoderma
# Candida parapsilosis [19] = test: Antifungal activity against fluconalzole-susceptible Candida parapsilosis after 24 hrs; details: Lodderomyces parapsilosis
# Candida albicans [20] = test: Antifungal activity against Candida albicans infected in Caenorhabditis elegans assessed as survival at 32 ug/ml relative to control
# Trichophyton rubrum [21] = test: Antifungal activity against Trichophyton rubrum after 7 days by NCCLS protocol based method; details: 168 h
# Candida tropicalis [22] = test: Antifungal activity against Candida tropicalis after 24 hrs by NCCLS protocol based method
# Candida tropicalis [23] = test: Antifungal activity against Candida tropicalis after 24 hrs by microbroth dilution method
# Nannizzia gypsea [24] = test: Antifungal activity against Microsporum gypseum after 7 days by NCCLS protocol based method; details: 168 h
# Microsporum canis = test: Antifungal activity against Microsporum canis after 24 hrs by microbroth dilution method
# Aspergillus fumigatus [25] = test: Antifungal activity against Aspergillus fumigatus after 24 hrs by microbroth dilution method
# Cryptococcus neoformans [26] = test: Antifungal activity against Cryptococcus neoformans after 72 hrs by NCCLS protocol based method
# Candida albicans [27] = test: Antifungal activity against Candida albicans after 24 hrs by NCCLS protocol based method
# Fonsecaea compacta = test: Antifungal activity against Fonsecaea compacta after 24 hrs by microbroth dilution method
# Trichophyton rubrum [28] = test: Antifungal activity against Trichophyton rubrum after 24 hrs by microbroth dilution method
# Candida albicans [29] = test: Antifungal activity against fluconalzole-susceptible Candida albicans after 24 hrs
# Candida albicans [30] = test: Antifungal activity against fluconalzole-resistant Candida albicans after 24 hrs
# Candida parapsilosis [31] = test: Antifungal activity against fluconalzole-resistant Candida parapsilosis after 24 hrs; details: Lodderomyces parapsilosis
# Cryptococcus neoformans [32] = test: Potency index, ratio of fluconazole MIC to test compound MIC for Cryptococcus neoformans infected in Caenorhabditis elegans
# Cryptococcus neoformans [33] = test: Antifungal activity against Cryptococcus neoformans infected in Caenorhabditis elegans
# Pichia kudriavzevii [34] = test: Potency index, ratio of fluconazole MIC to test compound MIC for Candida krusei
# Pichia kudriavzevii [35] = test: Antifungal activity against Candida krusei
smiles,measurement,setting,value
C[C@H](CCCn1cc(CC(O)(Cn2cncn2)c2ccc(F)cc2F)nn1)[C@H]1CC[C@H]2[C@@H]3[C@H](O)C[C@@H]4C[C@H](O)CC[C@]4(C)[C@H]3C[C@H](O)[C@]12C (some centres not stated),MIC,Candida parapsilosis [1],3.12 to 6.25 µg/mL
same,MIC,Candida albicans [2],3.12 to 6.25 µg/mL
OC(CN1CCC(OCc2ccccc2Cl)CC1)(Cn1cncn1)c1ccc(F)cc1F (configuration not stated),MIC80,Candida albicans [3],0.01 µM
same,MIC80,Candida parapsilosis [4],0.01 to 2.33 µM
same,Ratio,Candida albicans [5],82
same,MIC80,Aspergillus fumigatus [6],0.55 to 2.33 µM
same,MIC80,Candida tropicalis [7],0.01 to 2.33 µM
same,MIC80,Cryptococcus neoformans [8],0.01 to 2.33 µM
same,MIC80,Candida albicans [9],0.01 to 2.33 µM
same,MIC80,Trichophyton rubrum [10],0.03 to 0.15 µM
same,MIC80,Kluyveromyces marxianus,0.01 to 2.33 µM
OC(Cc1cn(CCOCc2ccc(Br)cc2)nn1)(Cn1cncn1)c1ccc(F)cc1F (configuration not stated),MIC,Aspergillus fumigatus [11],0.0156 to 0.0625 µg/mL
same,MIC,Pichia kudriavzevii [12],0.0156 to 0.0625 µg/mL
same,MIC,Trichophyton rubrum [13],0.0156 to 0.0625 µg/mL
same,MIC,Candida albicans [14],0.0156 to 0.0625 µg/mL
same,MIC,Candida parapsilosis [15],0.0156 to 0.0625 µg/mL
same,MIC,Cryptococcus neoformans [16],0.0156 to 0.0625 µg/mL
same,MIC,Nannizzia gypsea [17],0.0156 to 0.0625 µg/mL
same,MIC,Candida albicans [18],0.0156 to 0.0625 µg/mL
O=C(O)c1cn(C2CC2)c2c(Cl)c(N3CCC(NCC(O)(Cn4cncn4)c4ccc(F)c(F)c4)C3)c(F)cc2c1=O (configuration not stated),MIC,Candida albicans [3],0.25 to 2 µg/mL
same,MIC,Pichia norvegensis,0.25 to 2 µg/mL
OC(Cn1cncn1)(Cn1cncn1)c1ccc(F)cc1F [FLUCONAZOLE],MIC,Candida albicans [3],0.5 µg/mL
same,MIC,Candida parapsilosis [19],0.5 to 4 µg/mL
same,survival at 32 µg/mL,Candida albicans [20],60%
same,MIC,Aspergillus fumigatus [11],≥ 64 µg/mL
same,MIC,Trichophyton rubrum [21],0.5 µg/mL
same,MIC,Pichia kudriavzevii [12],≥ 64 µg/mL
same,MIC,Candida parapsilosis [4]; read-out: MIC,1 µg/mL
same,MIC,Candida tropicalis [22],0.5 µg/mL
same,MIC80,Candida tropicalis [23],≥ 0.5 µg/mL
same,MIC,Nannizzia gypsea [24],0.5 µg/mL
same,MIC80,Microsporum canis,≥ 0.5 µg/mL
same,MIC80,Aspergillus fumigatus [25],≥ 0.5 µg/mL
same,MIC,Trichophyton rubrum [13],≥ 64 µg/mL
same,MIC,Candida albicans [14],≥ 64 µg/mL
same,MIC80,Aspergillus fumigatus [6],> 200 µM
same,MIC,Cryptococcus neoformans [26],0.5 µg/mL
same,MIC,Candida albicans [27],0.5 µg/mL
same,MIC,Candida parapsilosis [15],≥ 64 µg/mL
same,MIC,Candida tropicalis [7]; read-out: MIC,0.125 to 8 µg/mL
same,MIC80,Fonsecaea compacta,≥ 0.5 µg/mL
same,MIC,Cryptococcus neoformans [16],≥ 64 µg/mL
same,MIC,Cryptococcus neoformans [8]; read-out: MIC,1 µg/mL
same,MIC80,Trichophyton rubrum [28],≥ 0.5 µg/mL
same,MIC,Nannizzia gypsea [17],≥ 64 µg/mL
same,MIC,Trichophyton rubrum [10]; read-out: MIC,0.125 to 8 µg/mL
same,MIC,Kluyveromyces marxianus; read-out: MIC,0.125 to 8 µg/mL
same,MIC,Candida albicans [29],0.5 to 4 µg/mL
same,MIC,Candida albicans [18],≥ 64 µg/mL
OC(Cn1cncn1)(Cn1cnc(SCc2cccc(Cl)c2)n1)c1ccc(F)cc1F (configuration not stated),MIC,Candida parapsilosis [19],0.063 to 1 µg/mL
same,MIC,Candida albicans [30],0.125 to 16 µg/mL
same,MIC,Candida parapsilosis [31],0.125 to 16 µg/mL
same,MIC,Candida albicans [29],0.063 to 1 µg/mL
O=C(O)c1cn(C2CC2)c2c(Cl)c(N3CCC(NCC(O)(Cn4cncn4)c4ccc(F)cc4)C3)c(F)cc2c1=O (configuration not stated),MIC,Candida albicans [3],0.25 to 2 µg/mL
same,MIC,Pichia norvegensis,0.25 to 2 µg/mL
OC(Cc1cn(C2CCCC2)nn1)(Cn1cncn1)c1ccc(F)cc1F (configuration not stated),Ratio,Cryptococcus neoformans [32],8
same,MIC,Cryptococcus neoformans [33],0.25 µg/mL
C#CCN(Cc1ccc(F)cc1F)CC(O)(Cn1cncn1)c1ccc(F)cc1F (configuration not stated),MIC80,Candida albicans [3],0.97 ng/mL
same,Ratio,Pichia kudriavzevii [34],64
same,Ratio,Candida albicans [5],515
same,MIC80,Pichia kudriavzevii [35],0.97 ng/mL
OC(CN1CCC(OCc2cccc(Cl)c2)CC1)(Cn1cncn1)c1ccc(F)cc1F (configuration not stated),MIC80,Candida albicans [3],0.01 µM
same,MIC80,Candida parapsilosis [4],0.01 to 2.33 µM
same,Ratio,Candida albicans [5],82
same,MIC80,Aspergillus fumigatus [6],0.55 to 2.33 µM
same,MIC80,Candida tropicalis [7],0.01 to 2.33 µM
same,MIC80,Cryptococcus neoformans [8],0.01 to 2.33 µM
same,MIC80,Candida albicans [9],0.01 to 2.33 µM
same,MIC80,Trichophyton rubrum [10],0.03 to 0.15 µM
same,MIC80,Kluyveromyces marxianus,0.01 to 2.33 µM
O=C(O)c1cn(C2CC2)c2c(Cl)c(N3CCC(NCC(O)(Cn4cncn4)c4ccc(Cl)c(Cl)c4)C3)c(F)cc2c1=O (configuration not stated),MIC,Candida albicans [3],0.25 to 2 µg/mL
same,MIC,Pichia norvegensis,0.25 to 2 µg/mL
